Patent US6551793B1, “Carotenoid-associated proteins useful for high carotenoid accumulation and production in plants and other organisms” (Yissum Research Development Company of the Hebrew …, priority 1996, dated 2003)

Assays:
Assay type in all cases: cell-based, Cucumis sativus
CHRC mRNA = assay: In vitro flower bud culture, Northern blot of CHRC mRNA in corollas
Protocol: (§1) Young flower buds were cultured in vitro in the presence (GA) or the absence (C) of 100 μM GA3 for up to 48 hours. Northern and Western blot analyses of corollas, cultured for the indicated periods of time, were performed. The Northern blots (25 μg total RNA/lane) were hybridized with ^32P-labeled DNA inserts from CHRC (CHRC), […] (Psy), and 18s rDNA (18S). Western blot analysis (bottom panel of A) was performed using antibodies against CHRC protein (25 μg total protein/lane). The results of the CHRC Northern blot analyses are also shown graphically relative to the mRNA level of the untreated corollas at zero time (0) (arbitrary value of 1).
(§2) Flower buds were cultured in the presence of 100 μm GA3 (GA), 100 μg/ml paclobutrazol following 2 hours of pretreatment with 100 μg/ml paclobutrazol (P), 100 μg/ml paclobutrazol +100 μm GA3 following 2 hours of pretreatment with 100 μg/ml paclobutrazol (P/GA), 100 μM ABA (ABA), or no phytohormones (C). Total RNA was extracted from corollas after 2 hours of treatment. Northern blot analyses were performed and probed as described in the legend to FIG. 7.
(§3) Total RNA and protein were extracted from cucumber corollas of flower buds cultured for 6 hours in the presence of 100 μM GA3 (GA), 50 μM CHX following 2 hours of pretreatment with 50 μM CHX (CHX/GA), or no phytohormones (C). Northern (CHRC, Psy, and 18S) and Western (bottom panel) blot analyses were performed as described above.
In FIG. 10, flower buds were cultured for 2 hours without (0) or with various concentrations of GA3. Total RNA was isolated from corollas, and a Northern blot was probed as above. The results of the CHRC Northern blot analyses are also shown graphically relative to the mRNA level of control corollas cultured without GA3 (arbitrary value of 1).
(§4) This example describes plant material and conditions for in vitro flower bud culture. C. sativus L. plants (cultivar Shimahon, obtained from Zeraim Gadera, Israel) were grown under standard greenhouse conditions. In vitro culture of flower buds was performed at 23° C., under constant light from cool white fluorescent lamps with a photosynthetic photon flux density of 80 μmol/m^2 g, as described previously. Briefly, buds at developmental stage 1 (˜8 mm in length, 120 hours before anthesis) were collected and rinsed several times with sterile water. Buds were then placed for 24 hours on a perforated Parafilm (American National Can, Greenwich, Conn.) covering a Petri dish filled with double-distilled sterile water, such that only the bases of the buds were in contact with the liquid. Following equilibration, buds were transferred to a fresh Petri dish (zero time for the experiments) and treated with GA3, ABA, paclobutrazol, or CHX, as specified in the figure legends.
This example describes conditions used for RNA isolation and Northern blot analysis. Total RNA from corollas of cucumber flower buds was isolated as described previously. RNA (15 and 25 μg) was fractionated through a 1.2% formaldehyde gel and transferred to a Hybond-N^− filter (Amersham Corp.). A random priming kit (Boehringer Mannheim) was used to radioactively labeled DNA probes. The blots were hybridized with ^32P-labeled cucumber CHRC cDNA (Vishnevetsky, et al., Plant Journal, 10: 1111-1118 (1996)) and reprobed with melon phytoene synthase (PSY) cDNA (MEL5), provided by D. Grierson of the Nottingham University, UK. The hybridization for analysis of CHRC expression was carried out in 0.263 M Na2HPO4, 7% SDS, […], 1% BSA for 16 hours at 60° C., and the washes were performed in 2×SSC/0.1% SDS at 50° C. followed by 2×SSC/0.1% SDS at 55° C., for 20 minutes each. Hybridization with the MEL5 probe was carried out at 55° C. using the same procedure. Following the hybridization, the blots were washed in 5×SSC/0.1% SDS at 45° C. for 20 minutes followed by 5×SSC/0.1% SDS at 50° C. and 2×SSC/0.1% SDS at 50° C. for 20 minutes each. […]

CHRD = assay: In vitro flower bud culture, Western blot of CHRD in corollas
Protocol: CHRD levels in corollas were analyzed by western blotting (10 μg of total protein per lane) using antibodies against CHRD and horseradish peroxidase anti-rabbit IgG in an enhanced chemiluminescence detection system. FIG. 14B is a Western blot analysis of corollas (50 μg of total protein per lane) cultured for the indicated periods with (+) or without (−) GA3. The blot was decorated with antibodies against CHRD and alkaline phosphatase anti-rabbit 1 gG.
(§5) In FIG. 15A, antibodies against CHRD or CHRC were used in a western blot analysis of CHRD and CHRC levels, respectively, in corollas cultured for 72 hours in the presence (E) or absence (C) of ethylene (50 μg of total protein per lane). In FIG. 15B, flowers were enclosed in aluminum foil in the greenhouse for 3 days and CHRD levels in etiolated (D) and control, nonetiolated (L) corollas were analyzed by western blotting (50 μg of total protein per lane).
as §4
CHRD protein was isolated from Cucumis sativus as a minor component, immunologically characterised and analyzed in terms of the regulation of its expression by developmental signals using methods and conditions described above for CHRC. […] Carotenoids are known to accumulate in dark.

Psy mRNA = assay: In vitro flower bud culture, Northern blot of Psy mRNA in corollas
Protocol: as §1, §2, §3
as §4, with “Following equilibration, buds were transferred to a fresh Petri dish (zero time for the experiments) and treated with GA3, ABA, paclobutrazol, or CHX, as specified in the figure legends.” left out
This example describes conditions used for RNA isolation and Northern blot analysis. […] Autoradiograms were quantified by scanning suitably exposed films in a densitometer (Molecular Dynamics, Sunnyvale, Calif.). The amount of RNA loaded onto the gels was standardized by optical measurement, by quantitation of the ethidium bromide fluorescence of cytoplasmic rRNA. and by the level of hybridization with a DNA fragment coding for cytoplasmic 18S RNA.

CHRC protein = assay: In vitro flower bud culture, Western blot of CHRC protein in corollas
Protocol: as §5, §4

[1] = tested on: GUS reporter gene expression; assay: Transient expression of reporter gene GUS under CHRC promoter versus 35S CaMV promoter
Text: FIGS. 1A and 1B show comparative photographs of cucumber flowers petals showing transient expression of the reporter gene GUS using CHRC promoter (FIG. 1A) or known 35S CaMV promoter (FIG. 1B).
The promoter containing CHRC upstream region was about 70% as efficient as the 35S CaMV promoter in cucumber petals and about 60% as efficient in leaves, fruits and stems. The CHRC promoter's efficiency in another representative of the cucurbit family, namely in melon, was similar to the efficiency found in cucumber.
In cucumber-petals, the CHRC upstream region was about 70% as efficient as the 35S CaMV promoter. In leaves, fruits and stems, the CHRC promoter was about 60% as efficient as 35S CaMV. Promoter's efficiency in melon was similar to that observed in cucumber.

[2] = ethylene, corollas cultured for 72 hours
[3] = 50 μM CHX with 100 μM GA3, 6 hours
[4] = dose response 1×10^−8 to 1×10^−4 M GA3, 2 hours

CC(C)(C)[C@@H](O)[C@@H](Cc1ccc(Cl)cc1)n1cncn1 (racemic) [paclobutrazol]
Decrease in CHRC mRNA levels relative to control untreated corollas (CHRC mRNA; 100 μg/ml paclobutrazol after 2 hours of pretreatment, 2 hours of treatment): 4 fold | CHRD level per unit protein, down-regulation compared with control untreated corollas (CHRD; flower buds cultured for 72 hours): 4.8±0.2 times | Effect on Psy mRNA levels (Psy mRNA; 100 μM ABA or 100 μg/ml paclobutrazol, 2 hours of treatment): Neither ABA nor paclobutrazol markedly affected

C=C [ethylene]
CHRD level per unit protein following treatment (CHRD; [2]): down-regulated | CHRC level in treated corollas versus controls (CHRC protein; [2]): lower than that in controls

C[C@@H]1C[C@@H]([C@H](O)CC2CC(=O)NC(=O)C2)C(=O)[C@@H](C)C1 [CHX, cycloheximide]
Effect on up-regulation of CHRC mRNA by GA3 (CHRC mRNA; [3]): did not prevent | Effect of CHX alone on CHRC transcript accumulation (CHRC mRNA; CHX alone): did not affect | Effect on increase in CHRC protein levels in GA3-treated buds (CHRC protein; [3]): successfully abolished | Effect on Psy mRNA levels (Psy mRNA; 50 μM CHX, 6 hours): unaffected

C=C1C[C@]23C[C@@]1(O)CC[C@H]2[C@@]12C=C[C@H](O)[C@@](C)(C(=O)O1)[C@H]2[C@@H]3C(=O)O [GA3, Gibberellin A3]
CHRC mRNA level in treated versus control corollas (CHRC mRNA; 100 μM GA3, after 20 minutes of treatment): approximately twice as high | CHRC transcript accumulation with exogenous GA3 added to paclobutrazol (CHRC mRNA; 100 μg/ml paclobutrazol + 100 μm GA3 after 2 hours paclobutrazol pretreatment): up-regulated CHRC transcript accumulation to the level of GA3-treated corollas | Concentration at which CHRC was strongly up-regulated (CHRC mRNA; [4]): 10^−5−10^−4 M | Lowest concentration sufficient to markedly elevate basal CHRC mRNA levels (CHRC mRNA; [4]): 10^−7 M | Time to detectable increase in CHRC mRNA level (CHRC mRNA; response to GA3, early time points (data not shown)): 10 to 20 min | CHRD level in treated versus untreated buds (CHRD; GA3, after only 2 hours): markedly higher | CHRD accumulation with GA3 in the culture medium (CHRD; GA3, in vitro bud culture, 72 hours): enhanced accumulation | CHRC per unit of protein in treated versus control corollas (CHRC protein; 100 μM GA3, after 2 hours of treatment): approximately 2.5 times | Effect on Psy mRNA levels (Psy mRNA; GA3 treatment, first 45 hours of corolla development): not affected

B1: CHRC upstream region: sequenced upstream region of the cucumber CHRC gene with strong promoter activity, SEQ ID NO:10 (nucleic acid, listed as Cucumis sativus)
DNA: AAGCTTTACAAATTAGGGTTACTTTATTCATTTTCATCCATTCTCTTTATTGTTAAATTTTGTACATTTATTCAATAATATTATATGTTTATTACAAATTCTCACTTTCTTATTCATACCTATTCACTCAAGCCTTTACCATCTTCCTTTTCTATTTCAATACTATTTCTACTTCATTTTTCACGTTTTTAACATCTTTCTTTATTTCTTGTCCACTTCGTTTAGGGATGCCTAATGTCCCAAATTTCATCTCTCGTAGTAACACAAAACCAATGTAATGCTACTTCTCTCTACATTTTTAATACAAATAAAGTGAAACAAAATATCTATAAATAAACAAATATATATATTTTGTTAGACGCTGTCTCAACCCATCAATTAAAAAATTTTGTTATATTTCTACTTTACCTACTAAATTTGTTTCTCATATTTACCTTTTAACCCCCACAAAAAAAAATTATAAAAAAGAAAGAAAAAAGCTAAACCCTATTTAAATAGCTAACTATAAGATCTTAAAATTATCCTCATCAGTGTATAGTTTAATTGGTTATTAACTTATAACATTATATATCTATGACATATACTCTCTCCTAGCTATTTCTCACATTTTTTAACTTAAGAAAATAGTCATAACATAGTCTAAAATTCAAACATCCACATGCTCTAATTTGATTAACAAAAAGTTAGAAATATTTATTTAAATAAAAAAGACTAATAAATATATAAAATGAATGTTCATACGCAGACCCATTTAGAGATGAGTATGCTTTCACATGCTGAGATTATTTTCAAAACTAAGGTTGTAGCAATATTAAATCAATAAAATTATTATAAATAACAAAATTAACCTGCTCGTGTTTGCTGTATATGGGAGGCTACAAAATAAATTAAACTAAAGATGATTATGTTTTAGACATTTTTTCTATCTGTATTAGTTTATACATATTAATTCAGGAGCTGCACAACCCAATTCTATTTTCGTTCCTTGGTGGCTGGGTTTCTCACAAGGTTCAATAGTCAATATTAGGTTTTATTGGACTTTTAATAGTATCAAACAAATCTATGTGTGAACTTAAAAATTGTATTAAATATTTAGGGTAACCTGTTGCCGTTTTTAGAATAATGTTTCTTCTTAATACACGAAAGCGTATTGTGTATTCATTCATTTGGCGCCTCACATGCTTCGGTTGGCTCGCTTTAGTCTCTGCCTTCTTTGTATATTGTACTCCCCCTCTTCCTATGCCACGTGTTCTGAGCTTAACAAGCCACGTTGCGTGCCATTGCCAAACAAGTCATTTTAACTTCACAAGGTCCGATTTGACCTCCAAAACAACGACAAGTTTCCGAACAGTCGCGAAGATCAAGGGTATAATCGTCTTTTTGAATTCTATTTCTCTTTATTTAATAGTCCCTCTCGTGTGATAGTTTTTAAAAGATTTTTAAAACGTAGCTGCTGTTTAAGTAAATCCCAGTCCTTCAGTTTGT
Efficiency relative to the 35S CaMV promoter ([1]; cucumber leaves, fruits and stems): about 60% | Efficiency relative to the 35S CaMV promoter ([1]; cucumber petals): about 70%
